# Values joined by “and” are separate entries in the source; they are usually repeats but may differ in a detail not shown here. Equal values may be shown once. Read-outs that look alike come from different tables or passages of the source.
# Columns and labels:
# human liver microsomes = test: SN-38 glucuronide formation by human liver microsome samples of patients; format: in vitro ADME; details: N 48
# Excerpt: To obtain statistical data on interindividual variation of SN-38 glucuronidation, we measured the SN-38-G formation, as currently known in the background art, with microsomes preparations from each patient liver sample. The glucuronide formation rates were regrouped into ranges and every sample was categorized within these ranges.
# human UGT1A9*1 = target: T1, human UGT1A9*1 (Homo sapiens, UniProt O60656); details: SN-38 glucuronidation
# T1 sequence (O60656 26-530): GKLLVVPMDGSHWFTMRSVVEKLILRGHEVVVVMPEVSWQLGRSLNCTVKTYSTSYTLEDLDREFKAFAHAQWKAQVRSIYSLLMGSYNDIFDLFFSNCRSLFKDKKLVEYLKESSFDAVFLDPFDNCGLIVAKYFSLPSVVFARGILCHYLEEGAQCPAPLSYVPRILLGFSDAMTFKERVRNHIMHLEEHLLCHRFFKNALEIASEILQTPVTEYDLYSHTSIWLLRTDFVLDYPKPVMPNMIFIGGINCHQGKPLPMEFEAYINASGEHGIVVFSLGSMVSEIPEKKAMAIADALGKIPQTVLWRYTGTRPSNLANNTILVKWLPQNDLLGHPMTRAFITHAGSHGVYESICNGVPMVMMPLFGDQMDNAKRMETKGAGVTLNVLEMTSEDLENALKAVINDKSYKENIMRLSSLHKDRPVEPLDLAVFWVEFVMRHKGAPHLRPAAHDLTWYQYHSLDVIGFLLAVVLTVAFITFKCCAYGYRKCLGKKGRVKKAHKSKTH
# Protocol: Microsomal fractions from HEK-293 cells stably expressing human UGT1A9*1, UGT1A9*2 and UGT1A9*3 were used in enzymatic assays. Reactions (100 μl volume) contained 50 mM Tris-HCl, pH 7.3, 10 mM MgCl2, 100 μg/mL phosphatidylcholine, 1 mM UDP-glucuronic acid, 40 to 60 μg of membrane protein. […] Human liver microsome were incubated in the same condition for control. Reaction was stopped by the addition of 200 μL MeOH+1% HCl 2N, followed by centrifugation at 14000 rpm for 10 minutes. Supernatant was filtered through a 0.22 μm filter and 100 μL of water was added. For SN-38 and SN-38-glucuronide detection, 10 μL samples were injected on a liquid chromatographic system coupled to a fluorescence detector. Time-course experiments were realized to determine the linearity of the glucuronidation reaction.
# A liquid chromatographic method was developed to quantify SN-38 glucuronidation of UGT cell line-derived microsomes and human liver microsomes. Samples were analyzed using high performance liquid chromatography (Alliance 2695, Waters, Milford, Mass.). […] At a constant flow rate (0.7 ml/min), a linear gradient from 20 to 65% B was run over 3 min, held 0.8 min and a second gradient until 95% of B was run over 2 min and then re-equilibrated to 20% B over 2 min. The effluent from the HPLC system (Alliance 2695) was connected directly to a fluorescence detector (Waters, Milford, Mass.) using an excitation wavelength of […] and an emission of 460 nm. […] Determination of the glucuronidation rates obtained with other substrates was performed as currently known in the art.
# Microsomal fractions from HEK293 (40 to 60 μg) were added to a reaction mixture (100 μL) containing 50 mM Tris-HCl, pH 7.3, 10 mM MgCl2, 100 μg/mL phosphatidylcholine and 2 mM UDP-glucuronic acid. […] Commercially available human liver microsomes (Human Cell Culture Center Inc., Laurel, Md.) were incubated in the same conditions for all experiments. Time-course experiments were performed to determine the linearity of the glucuronidation reaction. For the determination of Vmax and Km. HEK293 cells stably expressing UGT1A9 enzymes were incubated in the presence of various concentrations of SN-38 ranging from 0.1 to 200 μM and incubated for 30 min as described above whereas UGT1A7 membranes preparations were incubated for 3 hours. […] For the detection of SN-38 and its glucuronide (SN-38G), 10 μL samples were injected in a liquid chromatographic system (HPLC) coupled to fluorescence detector as described below.
# A HPLC method was developed to quantify the rates of SN-38 glucuronidation from the various microsomal fractions under study. […] The column was connected to a fluorescence detector model 474 (Waters, Milford, Mass.) and the molecules were excited at a wavelength of 370 nm and an emission of 425 nm.
compound,measurement,setting,value
"CCc1c2c(nc3ccc(O)cc13)-c1cc3c(c(=O)n1C2)COC(=O)[C@]3(O)CC [SN-38, 7-ethyl-10-hydroxycamptothecin]","SN-38 glucuronide formation, glucuronidation rate, Mean",human liver microsomes,0.61 pmol/mg of protein/minute and 0.6118 pmol/mg of protein/minute
same,"SN-38 glucuronide formation, quantile 0.0% minimum",human liver microsomes,0.1063 pmol/mg of protein/minute
same,"SN-38 glucuronide formation, quantile 0.5%",human liver microsomes,0.1063 pmol/mg of protein/minute
same,"SN-38 glucuronide formation, quantile 2.5%",human liver microsomes,0.1113 pmol/mg of protein/minute
same,"SN-38 glucuronide formation, quantile 10.0%",human liver microsomes,0.1641 pmol/mg of protein/minute
same,"SN-38 glucuronide formation, quantile 25.0% quartile",human liver microsomes,0.2763 pmol/mg of protein/minute
same,"SN-38 glucuronide formation, quantile 50.0% median",human liver microsomes,0.4204 pmol/mg of protein/minute
same,"SN-38 glucuronide formation, quantile 75.0% quartile",human liver microsomes,0.9279 pmol/mg of protein/minute
same,"SN-38 glucuronide formation, quantile 90.0%",human liver microsomes,1.5699 pmol/mg of protein/minute
same,"SN-38 glucuronide formation, quantile 97.5%",human liver microsomes,1.9309 pmol/mg of protein/minute
same,"SN-38 glucuronide formation, quantile 99.5%",human liver microsomes,1.9735 pmol/mg of protein/minute
same,"SN-38 glucuronide formation, quantile 100.0% maximum",human liver microsomes,1.9735 pmol/mg of protein/minute
same,Vmax,"human UGT1A9*1; 0.1 to 200 μM, mean±SD",316.34±52.03 pmol/min/mg protein
same,Km,human UGT1A9*1; Table 5,3.03 ± 0.72 µM
same,Vmax,human UGT1A9*1; Table 5,316.34 ± 52.03
same,Km,"human UGT1A9*1; read-out: Apparent Km, 0.1 to 200 μM, mean±SD, Lineweaver-Burk",3.03 µM and 3.02 µM

# Reference: patent publication US20060183119A1, “Method for determining predisposition to a physiological reaction in a patient” (UNIVERSITE LAVAL, priority 2002, published 2006)
